In PubChem BioAssay AID1552 (Sanford-Burnham Center for Chemical Genomics, 2009) one finds Kd data, which are given here for 95 molecules.

For the test, the target named is Ubiquitin-conjugating enzyme E2 N (Homo sapiens) (UniProt P61088). Kind of test: UBE2N binders by NMR, biophysical, purified protein (AID 1552). Conditions: NMR binding to purified UBE2N.

Calls of active or inactive are those of the source. The rule behind the calls is not given here.

Ubiquitin-conjugating enzyme E2 N (Homo sapiens), sequence (P61088 whole entry, looked up): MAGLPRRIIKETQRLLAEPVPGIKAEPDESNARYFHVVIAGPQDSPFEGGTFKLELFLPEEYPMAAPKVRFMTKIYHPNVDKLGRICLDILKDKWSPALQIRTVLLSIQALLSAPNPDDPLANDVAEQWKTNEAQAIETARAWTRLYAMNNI

For orientation: Kd means the free concentration of one partner at which half of the binding sites on the other are occupied at equilibrium, for simple one-to-one binding. In the case of `Cc1ccc(C)n1-c1ccc(C(=O)N2CCOCC2)cc1`, the Kd was > 4 mM (inactive). Consider `Cn1c(=O)c2c([nH]c(=O)n2C)n(C)c1=O`, for which the Kd was > 4 mM (inactive).

Turning to `CN(C)C(=O)c1ccc(-c2n[nH]c(=O)c3ccccc23)cc1`, the Kd was > 4 mM (inactive). Regarding `Nc1cc(F)ccc1-n1ccnc1`, the Kd was > 4 mM (inactive). `O=C(O)CNC(=O)c1ccccc1`: the Kd is > 4 mM (inactive). `O=C1NC(=S)N/C1=C/c1ccc(O)c(Cl)c1`: the Kd was > 4 mM (inactive). For the molecule `CC(=O)CNc1cc(CNC(C)=O)c(C)cc1C`, the Kd is > 4 mM (inactive). For `NC(=O)C1CCN(C(=O)Nc2ccccc2)CC1`, the Kd is > 4 mM (inactive). Take `COc1cc(OC)cc(-c2nc(N)n[nH]2)c1`: the Kd was > 4 mM (inactive). `Cc1ccc(S(=O)(=O)CC(N)=O)cc1`: the Kd was > 4 mM (inactive). With `CCOC(=O)c1csc(C2COc3ccccc3O2)n1` (stereo not given), the Kd is > 4 mM (inactive).

As to `S=c1[nH]nc(-c2cccnc2)n1Cc1ccccc1`, the Kd was > 4 mM (inactive). As to `CS(=O)(=O)Nc1ccccc1C(=O)c1ccccc1`, the Kd was > 4 mM (inactive). Regarding `NC(=O)C1CC2C=CC1C2` (stereo not given), the Kd is > 4 mM (inactive).

For `O=C(O)c1ccc(-c2ccccn2)s1`, the Kd is > 4 mM (inactive). For `Cc1[nH]n(-c2ccccc2)c(=O)c1[N+](=O)[O-]`, the Kd is > 4 mM (inactive). Turning to `CC(=O)OC[C@H]1O[C@@H](Oc2cc(OC(C)=O)c3c(=O)cc(-c4ccc(OC(C)=O)cc4)oc3c2)[C@H](OC(C)=O)[C@@H](OC(C)=O)[C@@H]1OC(C)=O`, the Kd was > 4 mM (inactive). The result for `O=C(Nc1ccc2ccccc2c1)c1cnccn1` reads > 4 mM (inactive). Turning to `CCc1noc(C)c1C(=O)N1CCOCC1`, the Kd was > 4 mM (inactive).

In the case of `COC(=O)[C@]1(C)CC[C@]2(C)CC[C@]3(C)C4=CCc5c(cc(O)c(O)c5C)[C@]4(C)CC[C@@]3(C)C2C1` (stereo not given in full), the Kd was > 4 mM (inactive).

For the molecule `O=C1c2ccccc2C(=O)N1Cc1ccco1`, the Kd was > 4 mM (inactive). With `COc1ccc(-c2noc(-c3ccco3)n2)cc1OC`, the Kd is > 4 mM (inactive). For `Cc1cc(C(=O)N2CCC3(CC2)OCCO3)cs1` the value was > 4 mM (inactive). For the molecule `NCc1nnnn1-c1ccccc1`, the Kd is > 4 mM (inactive). For the molecule `O=C(O)C1CSC(c2cc3ccccc3nc2Cl)N1` (stereo not given), the Kd was > 4 mM (inactive). With `CCOC(=O)C1CCN(c2ncnc3nc[nH]c23)CC1`, the Kd was > 4 mM (inactive). In the case of `Cn1nnc2cc(CN)ccc21`, the Kd is > 4 mM (inactive). For `C[C@@H]1[C@H]2[C@H](O[C@@H]3O[C@H](CO)[C@@H](O)[C@H](O)[C@H]3O)OC=C(C(=O)O)[C@H]2C[C@@H]1O` the value was > 4 mM (inactive); for `Cc1cc(C(=O)NC(C)c2ccncc2)cs1` (stereo not given), > 4 mM (inactive).

In the case of `NC(=O)C1CCN(C(=S)c2ccccc2)CC1`, the Kd was > 4 mM (inactive). Take `O=C(Nc1ccccc1)c1cnc2n(c1=O)CCS2`: the Kd is > 4 mM (inactive). The result for `O=C(O)c1ccc(-n2cccc2)cc1` reads > 4 mM (inactive); that for `CC1(C)C(=O)[C@@H]2O[C@@H]2[C@@]2(C)C1C[C@@H](O)[C@]1(C)C2CC[C@@]2(C)[C@H](c3ccoc3)OC(=O)C3OC321` (stereo not given in full), > 4 mM (inactive). For `O=C(CSc1ncnc2ccccc12)NCCCO`, the Kd is > 4 mM (inactive). The result for `COc1ccccc1NC(=O)NC(N)=O` reads > 4 mM (inactive); that for `c1ccc2c(c1)[nH]c1cnccc12`, > 4 mM (inactive). For `Cc1ccc(NC(=O)C2CCCNC2=O)nc1` (stereo not given) the value was > 4 mM (inactive); for `CC(=O)Oc1ccccc1N1C(=O)C=CC1=O`, > 4 mM (inactive); for `C=C1C2=CC(=O)O[C@@H](c3ccoc3)[C@]2(C)CCC1[C@@]1(C)C=CC(=O)C(C)(C)[C@@H]1CC(=O)OC` (stereo not given in full), > 4 mM (inactive). Take `O=C1CSC(=O)N1c1cccc(O)c1`: the Kd is > 4 mM (inactive). On to `Cc1n[nH]c(C)c1-c1ccccc1C(=O)O`, for which the Kd was > 4 mM (inactive). As for `CC1(C)CCC(C)(C)c2cc(C(=O)O)ccc21`, the Kd is > 4 mM (inactive). For the molecule `O=C(O[C@@H]1Cc2c(O)cc(O)cc2O[C@@H]1c1cc(O)c(O)c(O)c1)c1cc(O)c(O)c(O)c1`, the Kd was > 4 mM (inactive). Take `CCN1CCC(NC2CCCCNC2=O)CC1` (stereo not given): the Kd was > 4 mM (inactive). In the case of `COC(=O)/C(C)=C\CC12OC(C)(C)C3CC(C=C4C(=O)c5c(OC)c6c(c(CC=C(C)C)c5OC431)OC(C)(CCC=C(C)C)C=C6)C2=O` (stereo not given), the Kd is > 4 mM (inactive). `NCCc1c[nH]c2ccccc12`: the Kd was > 4 mM (inactive). Regarding `COc1ccc(-c2oc3c(CC=C(C)C)c(O[C@@H]4O[C@H](CO)[C@@H](O)[C@H](O)[C@H]4O)cc(O)c3c(=O)c2O[C@@H]2O[C@@H](C)[C@H](O)[C@@H](O)[C@H]2O)cc1`, the Kd was > 4 mM (inactive). For `O=c1ccc2ccccc2o1` the value was > 4 mM (inactive). In the case of `CC(C)=NNC(=O)c1ccccc1`, the Kd is > 4 mM (inactive).

`CN(C)S(=O)(=O)c1ccc(N2CCOCC2)nc1`: the Kd was > 4 mM (inactive). Take `CN1CCC(NC(=O)Cc2c(F)cccc2Cl)CC1`: the Kd is > 4 mM (inactive).

Consider `CC(C)C(C)/C=C/C(C)C1CCC2C3=CC=C4CC(O)CCC4(C)C3CCC21C` (stereo not given), for which the Kd was > 4 mM (inactive).

Turning to `Cc1cc(F)c(F)c(C(=O)NC2CC2)c1Cl`, the Kd was > 4 mM (inactive).

Regarding `CN(C)C(=O)CSc1nc2ccccc2c(=O)[nH]1`, the Kd is > 4 mM (inactive). The result for `Cc1ccc(N)nc1` reads > 4 mM (inactive). On to `Cn1nnc2cc(C(=O)NC3CCCCC3)ccc21`, for which the Kd was > 4 mM (inactive).

Regarding `Cc1cc(O)cc(=O)n1CCCC(=O)O`, the Kd is > 4 mM (inactive).

As for `Cc1noc(-c2ccccc2)c1CO`, the Kd is > 4 mM (inactive). For `CCC(C)C(=O)O[C@@H]1C[C@@]2(C)[C@H](c3ccoc3)OC(=O)CC23OC2(C)O[C@]14[C@]1(C)[C@@H](CC(=O)OC)C5(C)CC1(O)[C@](O)(C5OC(=O)C1(C)OC1C)[C@@H](OC(C)=O)[C@]34O2` (stereo not given in full) the value was > 4 mM (inactive). On to `O=C(NCc1ccccn1)c1ccc(Br)s1`, for which the Kd was > 4 mM (inactive).

As to `Nc1nc2ccccc2n1CCN1CCCC1`, the Kd is > 4 mM (inactive). For `Nc1ccc2nccnc2c1` the value was > 4 mM (inactive); for `O=S(=O)(CCN1CCCC1)c1ccccc1`, > 4 mM (inactive); for `O=C1CCCC(=O)N1Cc1ccco1`, > 4 mM (inactive). The result for `C[C@H]1OC(O[C@H]2[C@@H](O)CC(O[C@H]3[C@@H](O)C[C@H](O[C@H]4CC[C@]5(C)C6CC[C@]7(C)[C@@H](C8=CC(=O)OC8)[C@@H](O)C[C@]7(O)[C@@H]6CC[C@@H]5C4)O[C@@H]3C)O[C@@H]2C)C[C@H](O)C1O` (stereo not given in full) reads > 4 mM (inactive).

Consider `CC1=CCc2c(cc3oc(C)cc(=O)c3c2O)OC1`, for which the Kd was > 4 mM (inactive).

On to `CCOC(=O)N1CCCC1c1cccnc1` (stereo not given), for which the Kd was > 4 mM (inactive).

With `C=CCn1c(=S)[nH]c2ccc(Br)cc2c1=O`, the Kd was > 4 mM (inactive). The result for `CC1=C(CCC(=O)O)c2cc3nc(cc4[nH]c(cc5[nH]c(cc1n2)c(C)c5C(C)O)c(C)c4C(C)O)C(C)=C3CCC(=O)O` (stereo not given) reads > 4 mM (inactive); that for `C=CCCCCCCCCCCCC(O)CC(O)CO` (stereo not given) (tested in a mixture with another compound), > 4 mM (inactive).

Turning to `NS(=O)(=O)c1ccc(NC(=O)C(F)(F)F)cc1`, the Kd was > 4 mM (inactive). Take `Cc1[nH]c(=O)[nH]c(=O)c1N1CCOCC1`: the Kd is > 4 mM (inactive). In the case of `CN1CCCC1C(=O)O` (stereo not given), the Kd is > 4 mM (inactive).

With `OC/C=C/c1ccc(O)c(O)c1`, the Kd is > 4 mM (inactive).

Consider `CN1C(=O)CC[C@H]1c1cccnc1`, for which the Kd was > 4 mM (inactive). For the molecule `Fc1cccc(Cl)c1CN1CCNCC1`, the Kd is > 4 mM (inactive). As to `O=c1oc2c(O)c(O)cc3c(=O)oc4c(O)c(O)cc1c4c23`, the Kd was > 4 mM (inactive). For `NCc1ccc2c(c1)OCO2`, the Kd is > 4 mM (inactive). `CCCN1CCC(N2CCC(O)CC2)CC1`: the Kd was > 4 mM (inactive).

In the case of `O=C(/C=C/c1ccco1)NC1=NCCS1`, the Kd is > 4 mM (inactive). Consider `COc1ccc(-c2coc3cc(OC)cc(OC)c3c2=O)cc1`, for which the Kd is > 4 mM (inactive). With `O=C(Nc1ccccc1Cl)c1cnccn1`, the Kd was > 4 mM (inactive). As for `OC[C@H]1O[C@@H](n2cnc3c(NCc4ccco4)ncnc32)[C@H](O)[C@@H]1O`, the Kd is > 4 mM (inactive). Consider `Cc1nc2ccc(C(=O)O)cc2[nH]1`, for which the Kd was > 4 mM (inactive). On to `NCc1n[nH]c(=O)c2ccccc12`, for which the Kd was > 4 mM (inactive). The result for `NC(=O)C1CCN(C(=O)CN2CCc3ccccc32)CC1` reads > 4 mM (inactive); that for `CCCCCCCCCCCCCCC(C(=O)O)C(O)(CC(=O)OC)C(=O)O` (stereo not given), > 4 mM (inactive); that for `Nc1nsc(-c2ccccc2)n1`, > 4 mM (inactive).

`c1ccc(-c2csc3ncn4nnnc4c23)cc1`: the Kd was > 4 mM (inactive). The result for `Cc1ccc(NC(=O)c2ccccc2)s1` reads > 4 mM (inactive); that for `CN(C)C(=S)Nc1nc2ccccc2s1`, > 4 mM (inactive); that for `C/C=C(\C)C(=O)O[C@@H]1c2c(ccc3ccc(=O)oc23)OC(C)(C)[C@@H]1OC(C)=O`, > 4 mM (inactive). On to `Nc1ncnc2c1ncn2[C@@H]1O[C@H](CO)[C@@H](O)[C@H]1O`, for which the Kd was > 4 mM (inactive). As for `COc1ccccc1-c1c(C)nn2c(C)c(C(C)=O)cnc12`, the Kd is > 4 mM (inactive). For `CC(=O)Nc1ccc(C(=O)n2nc(C)cc2C)cc1` the value was > 4 mM (inactive).
